Data from publication PMC12603070, “A high-throughput screening approach to discover potential colorectal cancer chemotherapeutics: repurposing drugs to identify novel disruptors of 14-3-3 proteins” (Cell Death & Disease, 2025).
Where a name gives a salt, the structure may show the parent alone. Read-outs that look alike come from different tables or passages of the source.

Tests used:
HT-29 cells = assay: Hoechst/propidium iodide cell death assay in HT-29; format: cell-based, human; conditions: for %Cell death HT-29: time not given; for cytotoxicity at 20 µM: Homo sapiens
From the text: (§1) A high-content imaging system (PerkinElmer; Operetta CLS), was used to quantify cell death and apoptosis by calculating the number of propidium iodide-positive cells relative to Hoechst-positive cells, and the number of Annexin V-positive cells relative to Hoechst-positive cells, respectively.

NIH-3T3 cells = assay: Hoechst/propidium iodide cell death assay in NIH-3T3; format: cell-based; conditions: for cytotoxicity at 20 µM: Mus musculus, NIH3T3, 24 h, read-out: Percentage of cell death % 24h NIH3t3
From the text: as §1

Caco-2 cells = format: cell-based; conditions: for Percentage of cell death % 24h CACO-2: 20 µM; for Percentage of cell death % 48h, Caco-2: 20 μM
From the text: as §1

[1] = biological target: T1, 14-3-3ζ:BAD-112-136F interactions (Homo sapiens, UniProt P63104); assay: BRET sensor screen for disruption of 14-3-3ζ-Rluc8:BAD-112-136F-mCitrine in living NIH-3T3 cells; format: cell-based, murine; parameters: inhibition: dose or concentration left out as unconfirmed; BRET reduction on NIH-3T3: unit not given here; conditions: for inhibition at 20 µM / inhibition: NIH3T3, 3 h, read-out: BRET reduction on NIH-3T3
T1 construct: expressed in transfected cells; host or cells: NIH-3T3 fibroblasts, bi-directional pBI-CMV1 plasmid
T1 sequence (P63104 1-245): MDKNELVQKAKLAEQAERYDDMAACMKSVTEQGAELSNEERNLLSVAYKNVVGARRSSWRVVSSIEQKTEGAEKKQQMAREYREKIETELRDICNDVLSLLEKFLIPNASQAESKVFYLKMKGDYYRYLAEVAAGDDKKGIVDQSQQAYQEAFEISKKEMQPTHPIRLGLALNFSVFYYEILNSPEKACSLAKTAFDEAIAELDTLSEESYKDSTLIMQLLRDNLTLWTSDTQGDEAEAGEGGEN
Method: The Z’-score, which evaluates the robustness of an HTS assay readout, was calculated according to standard protocols. For the HTS, 384-well plates were coated with 100 μg/mL poly-L-ornithine (Sigma, Missouri, United States; #P3655) overnight at 37 °C, followed by rinsing with sterilized water. NIH-3T3 cells were transfected with the BRET sensor two days prior to experimentation, followed by replating onto the pre-coated 384-well plates at a density of 20,000 cells/well. After 24 h of incubation at 37 °C, growth media was replaced by Krebs buffer (pH 7.4).

[2] = HT-29, 24 h, read-out: Percentage of cell death % 24h HT-29
[3] = HT-29, 48 h, read-out: Percentage of cell death % 48h, HT-29
[4] = NIH-3T3 cells, hits from the primary screen
[5] = HT-29, 24 h, 20 µM, 24 h, read-out: Percentage of cell death % 24h HT-29
[6] = HT-29, 48 h, HT-29, 48h, 20 μM, read-out: Percentage of cell death % 48h, HT-29
[7] = NIH-3T3 expressing BRET sensor, 20 µM, 3 h

inhibition [1, 4] [%] | inhibition at 20 µM [1, 7] [%] | Compound | Percentage of cell death % 48h, NIH3T3 (NIH-3T3 cells) [%] | cytotoxicity at 20 µM (HT-29 cells; [5]) [%] | cytotoxicity at 20 µM (HT-29 cells; [6]) [%] | cytotoxicity at 20 µM (NIH-3T3 cells; 20 µM, 24 h) [%] | also measured
41.6 | 41.6 | COc1cc(C(=O)O)ccc1NC(=O)[C@@H]1N[C@@H](CC(C)(C)C)[C@](C#N)(c2ccc(Cl)cc2F)[C@H]1c1cccc(Cl)c1F [RG7388] | 20.6788 | 9.54 | 50 | 35.1 | Percentage of cell death % 24h CACO-2 (Caco-2 cells): 4.882%; Percentage of cell death % 48h, Caco-2 (Caco-2 cells): 4.655%
30.1 | 30.1 | Clc1ccccc1C(c1ccccc1)(c1ccccc1)n1ccnc1 [Clotrimazole] | 1.657 | 0.234 | 0.787 | 0.937 | 
29.5 | 29.5 | C=C(c1ccc(C(=O)O)cc1)c1cc2c(cc1C)C(C)(C)CCC2(C)C [Bexarotene] | 2.3561 | 0.535 | 4.19 | 3.81 | 
25.5 | 25.5 | O=C1Cc2cc(CCN3CCN(c4nsc5ccccc45)CC3)c(Cl)cc2N1 [Ziprasidone hydrochloride monohydrate] | 0.2764 | 1.29 | 1.87 | 1.15 | 
32.1 | 32.1 | c1ccc(-c2ccc(C(c3ccccc3)n3ccnc3)cc2)cc1 (stereo not drawn) [Bifonazole] | 0.5325 | 1.45 | 2.62 | 0.428 | 
36.4 | 36.4 | CC[C@H]1[C@@H](O)[C@@H]2[C@H](CC[C@]3(C)[C@@H]([C@H](C)CCC(=O)O)CC[C@@H]23)[C@@]2(C)CC[C@@H](O)C[C@@H]12 [Obeticholic Acid] | 0.273 | 0.566 | 1.41 | 1.16 | 
36.7 | 36.7 | CC[C@H](c1ccc(O)cc1)[C@@H](CC)c1ccc(O)cc1 [Hexestrol] | 3.549 | 1.37 | 3.31 | 5.47 | 
56.8 | 56.8 | CN1CCN(c2ccc(C(=O)Nc3n[nH]c4ccc(Cc5cc(F)cc(F)c5)cc34)c(NC3CCOCC3)c2)CC1 [Entrectinib] | 85.5203 | 58.1 | 80.4 | 81.5 | 

The next lines start with the compound.

Compound | inhibition [1, 4] [%] | inhibition at 20 µM [1, 7] [%] | Percentage of cell death % 48h, NIH3T3 (NIH-3T3 cells) [%] | cytotoxicity at 20 µM (HT-29 cells; [5]) [%] | cytotoxicity at 20 µM (HT-29 cells; [6]) [%] | cytotoxicity at 20 µM (NIH-3T3 cells; 20 µM, 24 h) [%] | also measured
C[C@H]1O[C@@H](O[C@H]2CC[C@@]3(C)[C@@H](CC[C@]4(C)[C@@H]3C=C[C@]35OC[C@@]6(CCC(C)(C)C[C@H]63)[C@@H](O)C[C@]54C)[C@]2(C)CO)[C@H](O)[C@@H](O[C@@H]2O[C@H](CO)[C@@H](O)[C@H](O)[C@H]2O)[C@H]1O [Saikosaponin A] |  |  | 80.787 |  |  |  | %Cell death HT-29 (HT-29 cells; HT-29): 87.6%; cytotoxicity at 20 µM (HT-29 cells; [2]): 93.8%; cytotoxicity at 20 µM (HT-29 cells; [3]): 87.6%; cytotoxicity at 20 µM (NIH-3T3 cells): 80.7%; %Cell death Caco-2 (Caco-2 cells): 1.2%; inhibition at 20 µM [1]: 53.8%; BRET reduction on NIH-3T3 [1, 4]: 53.7827
CN(C(=O)CN(CCO)CC(=O)N(C)C(C)(C)Cc1ccccc1)C(C)(C)Cc1ccccc1 [Oxethazaine] | 28.9 | 28.9 | 9.9556 | 3.21 | 53.1 | 28.2 | %Cell death HT-29 (HT-29 cells; HT-29): 53.1%; %Cell death Caco-2 (Caco-2 cells): 13.9%
Clc1ccc(CO/N=C(\Cn2ccnc2)c2ccc(Cl)cc2Cl)c(Cl)c1.O=[N+]([O-])O [Oxiconazole (nitrate)] |  |  | 4.864 |  |  |  | Percentage of cell death % 24h HT-29 (HT-29 cells; 20 µM, 24 h): 3.543%; Percentage of cell death % 48h, HT-29 (HT-29 cells; HT-29, 48h, 20 μM): 5.935%; Percentage of cell death % 24h NIH3t3 (NIH-3T3 cells; 20 µM, 24 h): 5.3556%; Percentage of cell death % 24h CACO-2 (Caco-2 cells): 8.851%; Percentage of cell death % 48h, Caco-2 (Caco-2 cells): 7.056%
CCCCCCCCCCCCCCCC[n+]1ccccc1 [Cetylpyridinium Chloride] |  |  | 74.7179 |  |  |  | cytotoxicity at 20 µM (HT-29 cells; [2]): 27.2%; cytotoxicity at 20 µM (HT-29 cells; [3]): 76.9%; cytotoxicity at 20 µM (NIH-3T3 cells): 81.9%; Percentage of cell death % 24h CACO-2 (Caco-2 cells): 22.2457%; Percentage of cell death % 48h, Caco-2 (Caco-2 cells): 63.7687%
CCOc1cc(CC(=O)N[C@@H](CC(C)C)c2ccccc2N2CCCCC2)ccc1C(=O)O [Repaglinide] | 28.4 | 28.4 | 0.185 | 0.354 | 1.01 | 0.236 | 
Clc1ccc(CCC(Cn2ccnc2)Sc2c(Cl)cccc2Cl)cc1 (stereo not drawn) [Butoconazole nitrate] | 45.1 | 45.1 | 1.36 | 1.75 | 3.36 | 1.23 | 
CC(C)(O)c1ccccc1CC[C@@H](SCC1(CC(=O)O)CC1)c1cccc(/C=C/c2ccc3ccc(Cl)cc3n2)c1 [Montelukast Sodium] | 30.9 | 30.9 | 2.7667 | 0.524 | 1.19 | 14.8 | 
Sodium Aescinate |  |  | 15.6079 |  |  |  | Percentage of cell death % 24h HT-29 (HT-29 cells; 20 µM, 24 h): 0.8457%; Percentage of cell death % 48h, HT-29 (HT-29 cells; HT-29, 48h, 20 μM): 0.6065%; Percentage of cell death % 24h NIH3t3 (NIH-3T3 cells; 20 µM, 24 h): 50.0783%; BRET reduction on NIH-3T3 [1, 4]: 53.9832; BRET reduction on NIH-3T3 [1, 7]: 53.9832
COc1cc2ncnc(Nc3ccc(F)c(Cl)c3)c2cc1NC(=O)/C=C/CN1CCCCC1 [Dacomitinib (PF299804, PF299), Dacomitinib] | 26.7 | 26.7 | 75.5856 | 22.7 | 84.1 | 86.8 | 
CC/C(=C(/CC)c1ccc(O)cc1)c1ccc(O)cc1 [Diethylstilbestrol] | 28.3 | 28.3 | 3.653 | 0.869 | 2.76 | 11.2 | 
